Measurements from BindingDB's records for doi:10.1016/j.bioorg.2015.02.002 (Bezmialem Vakif University, 2015).
pIC50: −log10 of the molar value.

How the values were obtained:
Acetylcholinesterase = Acetylcholinesterase (Electrophorus electricus, UniProt O42275); assay: Anticholinesterase Activity Assays; details: pH 8
Description: (§1) The substrates of the reaction were acetylthiocholine iodide and butyrylthiocholine iodide. 5,5'-dithio-bis(2-nitrobenzoic) acid (DTNB) was used for the measurement of the anticholinesterase activity. The solutions of the samples and galantamine in n-propanol were prepared at concentration of 4000 µg/mL. […] 10 µL of DTNB solution was prepared by adding 2.0 mL of pH 7.0 and 4.0 mL of pH 8.0 phosphate buffers to a mixture of 1.0 mL of 16 mg/mL DTNB and 7.5 mg/mL NaHCO3 in pH 7.0 phosphate buffers. The reaction was initiated by the addition of 10 µL (7.1 mM) acetylthiocholine iodide (or 0.79 mM butyrylthiocholine iodide). Propyl alcohol was used as a solvent to controls. The hydrolysis of these substrates was monitored at 412 nm.

[1] = target: Carboxylic ester hydrolase (Equus caballus, UniProt Q9N1N9); assay: Anticholinesterase Activity Assays; details: pH 8
Description: as §1

Sequence of Acetylcholinesterase (O42275 whole entry): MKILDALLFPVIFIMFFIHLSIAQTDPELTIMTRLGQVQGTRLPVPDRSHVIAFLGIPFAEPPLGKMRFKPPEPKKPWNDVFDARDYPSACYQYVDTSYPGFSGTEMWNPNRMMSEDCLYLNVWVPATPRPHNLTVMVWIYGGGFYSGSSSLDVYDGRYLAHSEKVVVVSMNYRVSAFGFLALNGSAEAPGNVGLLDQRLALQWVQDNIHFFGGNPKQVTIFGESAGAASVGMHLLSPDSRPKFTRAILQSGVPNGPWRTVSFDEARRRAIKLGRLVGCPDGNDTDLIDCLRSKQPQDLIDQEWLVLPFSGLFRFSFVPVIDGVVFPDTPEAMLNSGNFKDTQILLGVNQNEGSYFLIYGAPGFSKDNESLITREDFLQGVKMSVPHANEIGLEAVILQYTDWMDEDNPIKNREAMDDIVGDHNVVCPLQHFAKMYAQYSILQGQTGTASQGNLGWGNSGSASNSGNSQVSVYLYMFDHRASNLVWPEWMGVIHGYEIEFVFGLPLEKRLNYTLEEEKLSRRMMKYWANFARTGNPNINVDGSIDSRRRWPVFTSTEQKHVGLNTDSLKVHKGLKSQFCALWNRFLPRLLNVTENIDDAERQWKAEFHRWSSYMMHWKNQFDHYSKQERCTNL
Sequence of Carboxylic ester hydrolase (Q9N1N9 whole entry): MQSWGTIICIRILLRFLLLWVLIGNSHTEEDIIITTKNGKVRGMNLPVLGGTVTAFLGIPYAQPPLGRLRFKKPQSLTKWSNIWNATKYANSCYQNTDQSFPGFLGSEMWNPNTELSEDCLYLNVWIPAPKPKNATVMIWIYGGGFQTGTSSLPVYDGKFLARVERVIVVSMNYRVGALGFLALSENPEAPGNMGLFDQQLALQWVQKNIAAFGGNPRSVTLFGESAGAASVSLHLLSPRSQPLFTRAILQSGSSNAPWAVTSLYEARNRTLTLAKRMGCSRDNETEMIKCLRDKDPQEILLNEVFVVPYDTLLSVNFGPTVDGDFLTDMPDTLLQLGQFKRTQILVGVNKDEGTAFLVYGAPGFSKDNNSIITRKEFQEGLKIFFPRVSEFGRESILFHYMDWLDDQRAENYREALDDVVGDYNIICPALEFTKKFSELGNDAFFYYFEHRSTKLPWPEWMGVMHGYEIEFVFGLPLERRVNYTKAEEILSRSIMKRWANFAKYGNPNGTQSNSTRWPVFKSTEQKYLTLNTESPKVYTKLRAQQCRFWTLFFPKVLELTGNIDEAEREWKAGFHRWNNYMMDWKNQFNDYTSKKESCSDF

O=C(Nc1ccc(I)cc1)Nc1nc(-c2cc3ccccc3oc2=O)cs1 [1-(4-Iodophenyl)-3-(4-(2-oxo-2H-chromen-3-yl)thiazol-2-yl)urea (e13)]
pIC50 (Acetylcholinesterase): 4.04
pIC50 [1]: 3.95

O=C(Nc1ccc([N+](=O)[O-])cc1)Nc1nc(-c2cc3ccccc3oc2=O)cs1 [1-(4-Nitrophenyl)-3-(4-(2-oxo-2H-chromen-3-yl)thiazol-2-yl)urea (e6)]
pIC50 (Acetylcholinesterase): 4.13
pIC50 [1]: 4.28
